Source: US6346201B1, “Ozonated solutions of tetrasilver tetroxide” (priority 2000, dated 2002)
Where two headings read alike, the source gives them in different places.

How the values were obtained:
E. coli = assay: Ozone kill of E. coli test culture; format: cell-based; settings: 3.2 ppm ozone, 1 minute
Protocol: (§1) Ozone is, of course, effective against enteric pathogens. For example, adding 3.2 ppm 03 to a test culture kills 1.95×10^6 cells/mL of E. coli in 1 minute and kills 1.5×10^6 cells/mL of P. aeruginosa in 1 minute.

[1] = Protocol: Ozone concentrations were measured by a chemical oxidation of indigo dye by using an indigo dye […] manufactured by HACH, Inc.
6.1 mg/L (6.1 ppm) of ozone was provided in deionized, distilled water over a 15 minute period. The solution was allowed to stand with stirring by a magnetic stirrer over a 24-hour period, taking periodic readings of the ozone concentration.

P. aeruginosa = assay: Ozone kill of P. aeruginosa test culture; format: cell-based; settings: 3.2 ppm ozone, 1 minute
Protocol: as §1

Bacillus subtilis spores = assay: Bacillus subtilis spore survival by MALS, AODC and 24-hour CFU count; format: cell-based
Protocol: The efficacy of ozone in the absence of tetrasilver tetroxide was evaluated by challenging Bacillus subtilis spores with 2 ppm ozone and measuring the survival rate over time by MALS, acridine orange direct counts (AODC) and by counting colony forming units (CFU) at 24 hours.
Bacillus subtilus spore suspensions in water were challenged with 2 ppm tetrasilver tetroxide and […] ozone to evaluate the killing efficacy of the combination. The survival rate over time was measured by MALS, AODC and counting colony forming units at 24 hours.

E. coli K12 = settings: 10 ppm or less tetrasilver tetroxide, within 30 minutes, other studies; cited from earlier work
[2] = B. subtilis spores, 2 ppm ozone, treatment time 0
[3] = B. subtilis spores, 2 ppm ozone, treatment time 5
[4] = B. subtilis spores, 2 ppm ozone, treatment time 10
[5] = B. subtilis spores, 2 ppm ozone, treatment time 15
[6] = B. subtilis spores, 2 ppm ozone, treatment time 20
[7] = B. subtilis spores, 2 ppm ozone, treatment time 30

O=[O+][O-] [ozone]
cells killed (E. coli): 1.95×10^6 cells/mL | ozone at 18 hours relative to that expected in the absence of tetrasilver tetroxide ([1]; 2 ppm tetrasilver tetroxide added, 18 hours): approximately an order of magnitude higher | ozone concentration ([1]; 2 ppm tetrasilver tetroxide added, after 18 hours): 0.12 ppm | ozone oxidizing activity ([1]; 2 ppm tetrasilver tetroxide added, by 24 hours): 0.03 ppm | half-life of ozone ([1]; 6.1 ppm ozone initially in deionized, distilled water, no tetrasilver tetroxide): approximately 2 hours | ozone concentration ([1]; 6.1 ppm ozone initially in deionized, distilled water, stirred, by 2 hours): 3 ppm | ozone concentration ([1]; 6.1 ppm ozone initially in deionized, distilled water, stirred, by 18 hours): 0.01 ppm | cells killed (P. aeruginosa): 1.5×10^6 cells/mL | MALS log intensity vs time of exposure (FIG. 1) (Bacillus subtilis spores; B. subtilis spores, 2 ppm ozone, increasing time of exposure): reduction in the log intensity | 24-Hour Count (Bacillus subtilis spores; [2]): 2.10 × 10^6 cfu/mL | 24-Hour Count % AODC (Bacillus subtilis spores; [2]): 100 % AODC | 24-Hour Count % control (Bacillus subtilis spores; [2]): 100 % control | AODC (Bacillus subtilis spores; [2]): 2.34 × 10^6 spores/mL | AODC % control (Bacillus subtilis spores; [2]): 100 % control | MALS % control (Bacillus subtilis spores; [2]): 100 % control | MALS intensity (Bacillus subtilis spores; [2]): 2436.6 | 24-Hour Count (Bacillus subtilis spores; [3]): 1.23 × 10^6 cfu/mL | 24-Hour Count % AODC (Bacillus subtilis spores; [3]): 76.9 % AODC | 24-Hour Count % control (Bacillus subtilis spores; [3]): 58.5 % control | AODC (Bacillus subtilis spores; [3]): 1.6 × 10^6 spores/mL | AODC % control (Bacillus subtilis spores; [3]): 68.3 % control | MALS % control (Bacillus subtilis spores; [3]): 65.33 % control | MALS intensity (Bacillus subtilis spores; [3]): 1591.92 | 24-Hour Count (Bacillus subtilis spores; [4]): 1.68 × 10^5 cfu/mL | 24-Hour Count % AODC (Bacillus subtilis spores; [4]): 14.5 % AODC | 24-Hour Count % control (Bacillus subtilis spores; [4]): 8.0 % control | AODC (Bacillus subtilis spores; [4]): 1.16 × 10^6 spores/mL | AODC % control (Bacillus subtilis spores; [4]): 49.5 % control | MALS % control (Bacillus subtilis spores; [4]): 51.89 % control | MALS intensity (Bacillus subtilis spores; [4]): 1264.26 | 24-Hour Count (Bacillus subtilis spores; [5]): 1.80 × 10^3 cfu/mL | 24-Hour Count % AODC (Bacillus subtilis spores; [5]): 0.14 % AODC | 24-Hour Count % control (Bacillus subtilis spores; [5]): 0.09 % control | AODC (Bacillus subtilis spores; [5]): 1.29 × 10^6 spores/mL | AODC % control (Bacillus subtilis spores; [5]): 55.1 % control | MALS % control (Bacillus subtilis spores; [5]): 42.67 % control | MALS intensity (Bacillus subtilis spores; [5]): 1039.64 | 24-Hour Count (Bacillus subtilis spores; [6]): 1.82 × 10^2 cfu/mL | 24-Hour Count % AODC (Bacillus subtilis spores; [6]): 0.04 % AODC | 24-Hour Count % control (Bacillus subtilis spores; [6]): 0.009 % control | AODC (Bacillus subtilis spores; [6]): 4.87 × 10^5 spores/mL | AODC % control (Bacillus subtilis spores; [6]): 20.8 % control | MALS % control (Bacillus subtilis spores; [6]): 34.94 % control | MALS intensity (Bacillus subtilis spores; [6]): 851.5 | 24-Hour Count (Bacillus subtilis spores; [7]): 10 cfu/mL | 24-Hour Count % AODC (Bacillus subtilis spores; [7]): 0.002 % AODC | 24-Hour Count % control (Bacillus subtilis spores; [7]): 0.00005 % control | AODC (Bacillus subtilis spores; [7]): 5.03 × 10^5 spores/mL | AODC % control (Bacillus subtilis spores; [7]): 21.5 % control | MALS % control (Bacillus subtilis spores; [7]): 27.96 % control | MALS intensity (Bacillus subtilis spores; [7]): 681.2 | antimicrobial effect (MALS graph, FIG. 3) (Bacillus subtilis spores; twenty-minute treatment with 0.3 ppm ozone): significant killing effect

[Ag+].[Ag+].[Ag+].[Ag+].[O-2].[O-2].[O-2].[O-2] [tetrasilver tetroxide]
kills % of E. coli K12 strain (E. coli K12): 100% | measurable oxidation as measured by the indigo dye method ([1]; without ozone): neither | antimicrobial effect (MALS graph, FIG. 3) (Bacillus subtilis spores; sixty-minute treatment with 2 ppm tetrasilver tetroxide): little more effective than the untreated control
